IC50, logP and Activity data for 25 molecules are collected here from ChEMBL document CHEMBL4808186, “Structure-Based Discovery of Pyrimidine Aminobenzene Derivatives as Potent Oral Reversal Agents against P-gp- and BCRP-Mediated Multidrug Resistance” (J Med Chem, 2021).

Active and inactive are the calls of the source. The rule behind the calls is not given here.

The subject of data set [1] is MDCK-II. The data set is described as follows: cells. Conditions: Canis lupus familiaris, 48 h.
Description: Cytotoxicity against BCRP-overexpressing MDCK-II cells incubated for 48 hrs by MTT assay
A short description of data set [2]: n-Octanol/water partition coefficient, logP of the compound by UHPLC analysis. Format: physicochemical.
Data set [3] has as its system MDCK-II. The data set is described as follows: cells. As to conditions: Canis lupus familiaris, 48 h. The source holds these as a separate data set.
Description: Cytotoxicity against MDCK-II cells incubated for 48 hrs by MTT assay
A further data set concerns K562/A02. As to the kind of experiment: Cytotoxicity against P-gp overexpressing human K562/A02 cells incubated for 48 hrs by MTT assay. Format: functional, cell-based. As to conditions: K562/A02, 48 h, read-out: IC50.
For another data set, the system named is K562. The data set is described as follows: Cytotoxicity against human K562 cells incubated for 48 hrs by MTT assay. As to conditions: K562, 48 h. Format: functional, cell-based.
In data set [4] the test system is MDCK-II. The data set is described as follows: Inhibition of BCRP-mediated multidrug resistance in MDCK-II cells assessed as mitoxantrone accumulation at 0.1 to 5 uM pretreated 1 hr followed by treated with mitoxantrone measured after 180 mins by flow cytometry. Conditions: Canis lupus familiaris, dose 0.1-5 µM, time 240.0 min. It is filed as cell-based.

On to `COc1cc2c(cc1OC)CN(CCc1ccc(NC(=O)c3ccc(C)c(Nc4nccc(-c5cccc(O)c5)n4)c3)cc1)CC2`, for which the concentration for half-maximal inhibition (IC50) with MDCK-II [1] is more than 100 µM; in the data set with MDCK-II [3], more than 100 µM; with K562/A02, 84.2 µM; in the data set on K562, more than 100 µM. Besides, the logP in data set [2] amounted to 2.28.
On to `COc1cc2c(cc1OC)CN(CCc1ccc(NC(=O)c3ccc(C)c(Nc4nccc(-c5ccc(F)cc5)n4)c3)cc1)CC2`, for which the 50% inhibitory concentration (IC50) in the data set on MDCK-II [1], with MDCK-II [3], in the data set with K562/A02 and in the data set on K562 was more than 100 µM throughout. Further, the lipophilicity (logP) in data set [2] worked out at 1.19.
`COc1cc2c(cc1OC)CN(CCNC(=O)c1ccc(C)c(Nc3nccc(-c4ccccc4O)n3)c1)CC2` yielded a lipophilicity (logP) in data set [2] of 2.31. The 50% inhibitory concentration (IC50) with MDCK-II [3] was 91.4 µM; in the data set on K562/A02 it was 52.3 µM; in the data set on K562, more than 100 µM.
As for `COc1ccc(-c2ccnc(Nc3cc(C(=O)Nc4ccc(CCN5CCc6cc(OC)c(OC)cc6C5)cc4)ccc3C)n2)cc1`, the IC50 with MDCK-II [1], with MDCK-II [3], with K562/A02 and with K562 was more than 100 µM each time. In data set [2], this molecule registered a logP of 1.35.
`COc1cc2c(cc1OC)CN(CCNC(=O)c1ccc(C)c(Nc3nccc(-c4cccs4)n3)c1)CC2`: the half-maximal inhibitory concentration (IC50) is 61.5 µM in the data set on MDCK-II [1], more than 100 µM in the data set with MDCK-II [3], 72 µM in the data set on K562/A02 and more than 100 µM with K562. This molecule also had a logP in data set [2] of 1.94.
As to `COc1cc2c(cc1OC)CN(CCc1ccc(NC(=O)c3cc(=O)c4ccccc4o3)cc1)CC2`, the IC50 in the data set with MDCK-II [1], in the data set with MDCK-II [3], in the data set with K562/A02 and in the data set with K562 was more than 100 µM throughout. The molecule further yielded a log partition coefficient (logP) in data set [2] of 0.93.
In the case of `COc1cc2c(cc1OC)CN(CCc1ccc(NC(=O)c3ccc(C)c(Nc4nccc(-c5ccccn5)n4)c3)cc1)CC2`, the half-inhibitory concentration (IC50) in the data set with MDCK-II [1] is more than 100 µM; in the data set with MDCK-II [3] it was more than 100 µM; in the data set with K562/A02, 89.6 µM; in the data set with K562, more than 100 µM. Also, the lipophilicity (logP) in data set [2] was 1.73.
As for `COc1cc2c(cc1OC)CN(CCc1ccc(NC(=O)c3cc(=O)c4c(O)cccc4o3)cc1)CC2`, the half-maximal inhibitory concentration (IC50) with MDCK-II [1] was 68.4 µM; in the data set with MDCK-II [3], 85.7 µM; in the data set with K562/A02 it was 45.3 µM; in the data set with K562 it was more than 100 µM. This molecule yielded a lipophilicity (logP) in data set [2] of 1.78.
Take `COc1cc2c(cc1OC)CN(CCc1ccc(NC(=O)c3ccc(C)c(Nc4nccc(-c5ccccc5O)n4)c3)cc1)CC2`: the concentration for half-maximal inhibition (IC50) with MDCK-II [1], with MDCK-II [3], with K562/A02 and in the data set on K562 was more than 100 µM in each case. Also, in data set [2], the lipophilicity (logP) amounted to 2.77.
With `COc1cc2c(cc1OC)CN(CCc1ccc(NC(=O)c3ccc(C)c(Nc4nccc(-c5ccc(C)cc5)n4)c3)cc1)CC2`, the IC50 in the data set on MDCK-II [1] is 61.3 µM; in the data set with MDCK-II [3] it was more than 100 µM; in the data set with K562 it was more than 100 µM.
As for `COc1cc2c(cc1OC)CN(CCc1ccc(NC(=O)c3cc(=O)c4ccc(C)cc4o3)cc1)CC2`, the IC50 is 88.7 µM in the data set with MDCK-II [1], more than 100 µM with MDCK-II [3], more than 100 µM in the data set on K562/A02 and more than 100 µM with K562. In data set [2], the log partition coefficient (logP) came to 1.87.
As to `COc1ccc(-c2ccnc(Nc3cc(C(=O)NCCN4CCc5cc(OC)c(OC)cc5C4)ccc3C)n2)cc1`, the concentration for half-maximal inhibition (IC50) was 55.2 µM with MDCK-II [1], more than 100 µM in the data set on MDCK-II [3], 64.9 µM in the data set on K562/A02 and more than 100 µM with K562. In data set [2], this molecule returned a logP of 2.16.
For the molecule `COc1cc2c(cc1OC)CN(CCc1ccc(NC(=O)c3ccc(C)c(Nc4nccc(-c5cccs5)n4)c3)cc1)CC2`, the concentration for half-maximal inhibition (IC50) with MDCK-II [1], in the data set with MDCK-II [3], in the data set on K562/A02 and in the data set on K562 was more than 100 µM throughout. The same molecule gave a logP in data set [2] of 1.48.
In the case of `COc1cc2c(cc1OC)CN(CCc1ccc(NC(=O)c3ccc(C)c(Nc4nccc(-c5cccnc5)n4)c3)cc1)CC2`, the IC50 is more than 100 µM with MDCK-II [1], more than 100 µM in the data set with MDCK-II [3], 60.4 µM in the data set on K562/A02 and more than 100 µM in the data set with K562. The logP in data set [2] came to 1.86.
With `COc1ccc2c3c([nH]c2c1)[C@H](CC(C)C)N1C(=O)[C@H](CCC(=O)OC(C)(C)C)NC(=O)[C@@H]1C3`, the IC50 in the data set on MDCK-II [1] was found to be 58.3 µM; in the data set with MDCK-II [3] it was 87.2 µM; in the data set on K562/A02, 58.7 µM; in the data set on K562, 71.5 µM. In addition, in the data set with MDCK-II [4], the result was Active.
For the molecule `COc1cc2c(cc1OC)CN(CCc1ccc(NC(=O)c3ccc(C)c(Nc4nccc(-c5ccco5)n4)c3)cc1)CC2`, the IC50 in the data set with MDCK-II [1], in the data set with MDCK-II [3], with K562/A02 and in the data set on K562 was more than 100 µM each time. Further, in data set [2], the logP stood at 1.7.
With `COc1cc2c(cc1OC)CN(CCNC(=O)c1ccc(C)c(Nc3nccc(-c4cccc(O)c4)n3)c1)CC2`, the IC50 in the data set on MDCK-II [1] was 72.6 µM; in the data set with MDCK-II [3], more than 100 µM; in the data set with K562/A02, 57.5 µM; in the data set with K562, more than 100 µM.
Consider `COc1cc2c(cc1OC)CN(CCNC(=O)c1ccc(C)c(Nc3nccc(-c4cccnc4)n3)c1)CC2`, for which the IC50 with MDCK-II [1], with MDCK-II [3], with K562/A02 and with K562 was more than 100 µM each time. Further, the log partition coefficient (logP) in data set [2] amounted to 0.8.
Consider `COc1cc2c(cc1OC)CN(CCNC(=O)c1ccc(C)c(Nc3nccc(-c4ccccc4)n3)c1)CC2`, for which the 50% inhibitory concentration (IC50) was 4740 µM in the data set with MDCK-II [1], more than 100 µM in the data set with MDCK-II [3], 66.2 µM in the data set with K562/A02 and more than 100 µM in the data set with K562. Moreover, the log partition coefficient (logP) in data set [2] worked out at 1.9.
`COc1cc2c(cc1OC)CN(CCNC(=O)c1ccc(C)c(Nc3nccc(-c4ccccn4)n3)c1)CC2`: the half-maximal inhibitory concentration (IC50) in the data set on MDCK-II [1] was 64.2 µM; in the data set on MDCK-II [3], more than 100 µM; in the data set with K562/A02, 89.6 µM; in the data set with K562, more than 100 µM. For the same molecule, the logP in data set [2] was found to be 1.71.
With `COc1cc2c(cc1OC)CN(CCNC(=O)c1ccc(C)c(Nc3nccc(-c4ccc(F)cc4)n3)c1)CC2`, the IC50 in the data set with MDCK-II [1] was 57.6 µM; with MDCK-II [3], more than 100 µM; in the data set on K562/A02, 75.3 µM; with K562 it was more than 100 µM. Besides, the lipophilicity (logP) in data set [2] came out at 2.04.
Turning to `COc1cc2c(cc1OC)CN(CCc1ccc(NC(=O)c3cc(=O)c4cc(F)ccc4o3)cc1)CC2`, the IC50 in the data set with MDCK-II [1] is more than 100 µM; with MDCK-II [3], more than 100 µM; with K562/A02, 82 µM; with K562 it was more than 100 µM.
Take `COc1cc2c(cc1OC)CN(CCNC(=O)c1ccc(C)c(Nc3nccc(-c4ccc(C)cc4)n3)c1)CC2`: the IC50 was 42.1 µM with MDCK-II [1], more than 100 µM in the data set on MDCK-II [3], 58.7 µM in the data set on K562/A02 and 73.8 µM with K562.
Take `COc1cc2c(cc1OC)CN(CCc1ccc(NC(=O)c3cc(=O)c4c(OC)cccc4o3)cc1)CC2`: the IC50 in the data set on MDCK-II [1], with MDCK-II [3], with K562/A02 and in the data set with K562 was more than 100 µM throughout. This molecule also came in with a logP in data set [2] of 0.76.
As to `COc1cc2c(cc1OC)CN(CCc1ccc(NC(=O)c3ccc(C)c(Nc4nccc(-c5ccccc5)n4)c3)cc1)CC2`, the IC50 in the data set on MDCK-II [1] is 79.7 µM; with MDCK-II [3], more than 100 µM; in the data set on K562/A02, more than 100 µM; with K562 it was more than 100 µM. In data set [2], this molecule showed a logP of 1.89.
